Read-outs that look alike come from different tables or passages of the source.
Experiments:
[1] = system: MDA-MB-436 breast cancer subcutaneous xenograft tumor model; assay: In vivo pharmacodynamic study of compound 2 in MDA-MB-436 subcutaneous xenograft tumor model; details: oral once daily, 30 days
Method: Experimental process: Twenty-four female NOD/SCID mice were used in the experiment. […] All groups were subjected to oral administration once daily. Meanwhile, the mice were weighed every 2 days, and the length and width of the tumors were measured with a vernier caliper. After 30 days of administration, the tumor-bearing mice were anesthetized and sacrificed. The tumor tissues were dissected, weighed, and photographed, and the tumor growth inhibition rates were calculated.

PARP1 = target: T1, PARP1 (Homo sapiens, UniProt P09874); assay: PARP1 enzyme assay (histone-coated plate, chemiluminescence); format: biochemical; details: PARP1 0.02 nM, DNA 0.8 nM, NAD+ 3.5 µM; read-out: PARP-1 IC50
T1 construct: purchased BPS 80501

[2] = Cerebrospinal fluid and plasma distribution in vivo; details: rat, male rats, intravenous 5 mg/kg, n = 1
[3] = cerebrospinal fluid, read-out: Cerebrospinal fluid

T1 sequence (P09874 whole entry): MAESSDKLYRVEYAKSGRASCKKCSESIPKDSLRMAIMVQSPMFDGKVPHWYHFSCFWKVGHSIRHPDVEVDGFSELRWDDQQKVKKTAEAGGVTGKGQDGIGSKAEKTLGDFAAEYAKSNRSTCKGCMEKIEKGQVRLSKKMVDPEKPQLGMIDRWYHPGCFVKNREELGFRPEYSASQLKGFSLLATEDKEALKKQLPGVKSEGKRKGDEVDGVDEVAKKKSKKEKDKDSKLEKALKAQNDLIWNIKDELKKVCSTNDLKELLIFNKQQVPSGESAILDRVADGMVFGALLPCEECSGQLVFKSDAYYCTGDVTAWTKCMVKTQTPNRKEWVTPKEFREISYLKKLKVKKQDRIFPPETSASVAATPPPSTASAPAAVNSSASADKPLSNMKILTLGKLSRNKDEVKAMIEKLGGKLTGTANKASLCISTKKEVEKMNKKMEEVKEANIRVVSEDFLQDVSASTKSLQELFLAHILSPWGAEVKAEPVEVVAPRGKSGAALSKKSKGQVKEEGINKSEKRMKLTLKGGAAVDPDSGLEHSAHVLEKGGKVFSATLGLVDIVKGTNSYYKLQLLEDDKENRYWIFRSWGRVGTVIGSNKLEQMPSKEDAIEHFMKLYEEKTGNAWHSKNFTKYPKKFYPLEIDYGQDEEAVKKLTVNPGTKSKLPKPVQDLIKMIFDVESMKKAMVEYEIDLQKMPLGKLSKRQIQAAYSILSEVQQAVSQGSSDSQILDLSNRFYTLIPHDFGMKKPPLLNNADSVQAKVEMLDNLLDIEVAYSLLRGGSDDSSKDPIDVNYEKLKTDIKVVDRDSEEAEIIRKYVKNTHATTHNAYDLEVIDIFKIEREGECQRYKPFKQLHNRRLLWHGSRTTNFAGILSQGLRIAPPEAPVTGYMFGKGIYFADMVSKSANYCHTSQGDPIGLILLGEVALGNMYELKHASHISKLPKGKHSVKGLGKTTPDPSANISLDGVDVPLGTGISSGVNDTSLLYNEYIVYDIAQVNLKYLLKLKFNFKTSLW

Row | IC50 (PARP1) [µM] | concentration at 0.25 h [2, 3] [ng/g] | concentration at 2 h [2, 3] [ng/g] | concentration at 0.25 h ([2]; plasma, read-out: Plasma) [µg/mL] | concentration at 2 h ([2]; plasma, read-out: Plasma) [µg/mL] | Compound | tumor growth inhibition rate ([1]; 1 mg/kg) [%] | tumor growth inhibition rate ([1]; 3 mg/kg) [%] | tumor inhibitory effect compared with the reference drug Olaparib 100 mg/kg group (in words) ([1]; 3 mg/kg)
1 |  |  |  |  |  | CCc1cc2c([nH]c1=O)CC(CN1CCN(c3ccc(C(=O)NC)nc3F)CC1)OC2 (centres unmarked) [Compound 2, 5-(4-((3-Ethyl-2-oxo-1,5,7,8-tetrahydro-2H-pyrano[4,3-b]pyridin-7-yl)methyl)piperazin-1-yl)-6-fluoro-N-methyl picolinamide] | 92.61 | 95.74 | significantly superior
2 | ≤ 0.05 | 60 | 19 | 8.79 | 5.56 | CNC(=O)c1ccc(N2CCN(CC3Cc4[nH]c(=O)c(C)cc4CO3)CC2)c(Cl)n1 (centres unmarked) [Example 74, 6-Chloro-N-methyl-5-(4-((3-methyl-2-oxo-1,5,7,8-tetrahydro-2H-pyrano[4,3-b]pyridin-7-yl)methyl)piperazin-1-yl)picolinamide] |  |  | 

— patent EP4768487A1, “FUSED LACTAM RING COMPOUND AND USE THEREOF” (Chengdu Zenitar Biomedical Technology Co., Ltd., priority 2023, dated 2025)
